The source of these data is patent US20240262814A1, “MODULATORS OF TREX1” (Constellation Pharmaceuticals, Inc., priority 2021, published 2024).

By IC50 is commonly meant the point on the concentration scale where inhibition reaches its midpoint. High values mean weaker potency, low ones greater potency. Broadly, the koff is a measure of how fast the partners let go of each other. A high value points to fast dissociation. One may read the kon as the second-order rate constant of association. Read a low kon as slow association. The term Kd denotes the free concentration of one partner at which half of the binding sites on the other are occupied at equilibrium, for simple one-to-one binding. A low value points to tighter binding. The residence time is the mean lifetime of the complex, commonly the reciprocal of the off-rate.

The structures appear in SMILES notation.

Assay [1] addresses T1, human TREX1 (Homo sapiens, UniProt Q9NSU2).
T1 construct: N-terminally His-Tev tagged full length human TREX1; made in house; host or cells: E. coli
T1 sequence (Q9NSU2 1-314): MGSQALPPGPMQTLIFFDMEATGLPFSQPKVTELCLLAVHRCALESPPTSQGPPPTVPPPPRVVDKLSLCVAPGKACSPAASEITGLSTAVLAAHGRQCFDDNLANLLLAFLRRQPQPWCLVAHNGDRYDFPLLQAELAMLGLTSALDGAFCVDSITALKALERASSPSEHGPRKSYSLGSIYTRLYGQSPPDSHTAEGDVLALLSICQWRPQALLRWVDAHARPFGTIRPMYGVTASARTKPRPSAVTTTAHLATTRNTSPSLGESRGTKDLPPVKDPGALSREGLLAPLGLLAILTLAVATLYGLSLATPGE
As to the kind of experiment: hTREX1 Biochemical Assay (fluorescence, dsDNA substrate degradation). Particulars: full length human TREX1, 4 h pre-incubation, 18 h reaction at 25° C. In a few lines:
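His-Tev-tagged full-length E. coli-expressed enzyme (4 pM final) preincubated with compound 4 h at 25° C., then 60 nM quenched-fluorophore dsDNA added in Tris pH 7.4, 5 mM MgCl2, 1% DMSO. After 18 h at 25° C., EDTA-quenched; fluorescence 615 nm (ex 570 nm); IC50 from four-parameter fit versus EDTA and no-inhibitor controls.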

Assay [2] addresses T1, human TREX1. In words: TREX1 kinetics assays (TR-FRET association and dissociation with biotinylated probe). Format: binding. The settings on record: for koff / kon: hTREX1, 25° C., global fit Kintek Explorer; for Kd / residence time: hTREX1, kinetic data. The protocol:
Compound binding kinetics were assessed using a pair of TR-FRET assays which measure the proportion of protein bound to a biotinylated TREX1 inhibitor (“probe”).
N-terminally His-Tev tagged full length human TREX1 (expressed in E. coli and purified in house), complexed with Eu-W 1024-anti-6×His (“Eu”; PerkinElmer) in reaction buffer (50 mM Tris, 150 mM NaCl, 2 mM DTT, 0.1 mg/mL BSA, 0.01% (w/v) Tween-20, 5 mM MgCl2, pH 7.4) was combined with an equal volume of test compound in reaction buffer and incubated at 25° C. Concentrations at this stage were 1 nM TREX1/Eu complex, and four concentrations of compound (diluted from 10 mM stocks in 100% DMSO). At defined time points, 18 μL of this mixture was withdrawn and combined with 2 p L probe to a final concentration of 1 μM probe. After incubating for 30 seconds, 18 μL was withdrawn and combined with 2 μL streptavidin-allophycocyanin (“SA-APC”; PerkinElmer) to a final concentration of 1.5 μM SA-APC. Fifteen μL of this mixture was then immediately transferred to a 384-well Black ProxiPlate Plus (PerkinElmer) and read in an EnVision plate reader (PerkinElmer) measuring fluorescence at 615 nm and 665 nm following excitation w/337 nm laser light. Final concentrations were 0.8 nM TREX1/Eu complex, 0.9 μM probe, and 1.5 μM SA-APC.
N-terminally His-Tev tagged full length human TREX1 (expressed in E. coli and purified in house), complexed with Eu-W1024-anti-6×His (“Eu”; PerkinElmer) in reaction buffer (50 mM Tris, 150 mM NaCl, 2 mM DTT, 0.1 mg/mL BSA, 0.01% (w/v) Tween-20, 5 mM MgCl2, pH 7.4) was combined with an equal volume of test compound in reaction buffer. Concentrations at this stage were 100 nM TREX1/Eu complex and 100 nM test compound (diluted from 10 mM stocks in 100% DMSO). Following an equilibration period of at least an hour at 25° C., this mixture was diluted 100-fold into reaction buffer containing 1 μM probe, and incubated at 25° C. At defined time points, 36 μL of the reaction mixture was withdrawn and combined with 4 μL streptavidin-allophycocyanin (“SA-APC”; PerkinElmer) to a final concentration of 1.5 μM SA-APC. Fifteen μL of this mixture was then immediately transferred to duplicate wells of a 384-well Black ProxiPlate Plus (PerkinElmer) and read in an EnVision plate reader (PerkinElmer) measuring fluorescence at 615 nm and 665 nm following excitation w/ 337 nm laser light.
The TR-FRET signal, a ratio of 665 nm/615 nm emitted light, was converted to fraction enzyme bound to test compound by normalizing to low signal (no enzyme or test compound) and high signal (no test compound) controls. Data from both association and dissociation experiments were fitted globally using Kintek Explorer software, which computes the rate constants directly.
A general note: TR-FRET usually uses a lanthanide donor and a delayed reading to cut background.

At human TREX1 [1], `CC(c1nc(C(=O)Nc2cnoc2)c(O)c(=O)n1C)C(c1ccccc1)c1ccccc1` (single isomer, unassigned) [Example 1 Isomer 1, 2-(1,1-diphenylpropan-2-yl)-5-hydroxy-N-(isoxazol-4-yl)-1-methyl-6-oxo-1,6-dihydro pyrimidine-4-carboxamide] registered a half-maximal inhibitory concentration (IC50) of more than 100 nM.
In the case of `CC(c1nc(C(=O)Nc2cnoc2)c(O)c(=O)n1C)C(c1ccccc1)c1ccccc1` (single isomer, unassigned) [Example 1 Isomer 2, 2-(1,1-diphenylpropan-2-yl)-5-hydroxy-N-(isoxazol-4-yl)-1-methyl-6-oxo-1,6-dihydro pyrimidine-4-carboxamide], at human TREX1 [1], the IC50 was in the range of 1 to 10 nM. At human TREX1 [2], this compound showed a koff of 0.000192 s⁻¹, a kon of 50300 M⁻¹ s⁻¹, a Kd of 3.8 nM and a residence time of 87 min.
The corresponding values for `C[C@H](c1nc(C(=O)Nc2cnoc2)c(O)c(=O)n1C)[C@H](c1ccccc1)c1ccccc1Cl` (single isomer, unassigned) [Example 2 Isomer 3, 2-(1-(2-chlorophenyl)-1-phenylpropan-2-yl)-5-hydroxy-N-(isoxazol-4-yl)-1-methyl-6-oxo-1,6-dihydropyrimidine-4-carboxamide] are less than 1 nM, 5.48e-05 s⁻¹, 159000 M⁻¹ s⁻¹, 0.345 nM and 304 min.
The corresponding values for `CC(c1nc(C(=O)Nc2cnoc2)c(O)c(=O)n1C)C(c1ccccc1)c1ccccc1C#N` (single isomer, unassigned) [Example 3 Isomer 4] are less than 1 nM, 3.6e-05 s⁻¹, 164000 M⁻¹ s⁻¹, 0.219 nM and 463 min.
Consider `CC(c1nc(C(=O)Nc2cnoc2)c(O)c(=O)n1C)C(c1ccccc1C#N)c1ccccc1C#N` (single isomer, unassigned) [Example 4 Isomer 2], for which the IC50 at human TREX1 [1] was less than 1 nM. At human TREX1 [2], this compound had a koff of 3.83e-05 s⁻¹, a kon of 907000 M⁻¹ s⁻¹, a Kd of 0.042 nM and a residence time of 435 min.
The corresponding values for `CC(c1nc(C(=O)Nc2cnoc2)c(O)c(=O)n1C)C(c1ccccc1)c1cc(F)ccc1C#N` (single isomer, unassigned) [Example 6 Isomer 4] are less than 1 nM, 3.37e-05 s⁻¹, 173000 M⁻¹ s⁻¹, 0.194 nM and 495 min.
Regarding `CC(c1nc(C(=O)Nc2cnoc2)c(O)c(=O)n1C)C(c1ccccc1)c1cc(Cl)ccc1C#N` (single isomer, unassigned) [Example 8 Isomer 2], the IC50 against human TREX1 [1] is less than 1 nM. On human TREX1 [2], this compound showed an off-rate constant (koff) of 4.17e-05 s⁻¹, a kon of 116000 M⁻¹ s⁻¹, a Kd of 0.361 nM and a residence time of 400 min.
Regarding `CC(c1nc(C(=O)Nc2cnoc2)c(O)c(=O)n1C)C(c1ccccc1)c1ccc(Cl)cc1C#N` (single isomer, unassigned) [Example 9 Isomer 4], the IC50 on human TREX1 [1] was less than 1 nM. On human TREX1 [2], the koff was 2.07e-05 s⁻¹, the kon is 178000 M⁻¹ s⁻¹, the Kd worked out at 0.116 nM and the residence time amounted to 806 min.
The corresponding values for `CC(c1nc(C(=O)Nc2cnoc2)c(O)c(=O)n1C)C(c1ccccc1Cl)c1ccccc1C#N` (single isomer, unassigned) [Example 10 Isomer 1] are less than 1 nM, 3.15e-05 s⁻¹, 448000 M⁻¹ s⁻¹, 0.07 nM and 529 min.
The matching figures for `CC(c1nc(C(=O)Nc2cnoc2)c(O)c(=O)n1C)C(c1cc(F)cc(F)c1)c1ccccc1C#N` (single isomer, unassigned) [Example 11 Isomer 3]: less than 1 nM, 1.92e-05 s⁻¹, 257000 M⁻¹ s⁻¹, 0.075 nM and 870 min.
On to `C[C@H](c1nc(C(=O)Nc2cnoc2)c(O)c(=O)n1C)[C@H](c1ccccc1)c1ccccc1C(F)(F)F` (single isomer, unassigned) [Example 14 Isomer 2, 5-Hydroxy-N-(isoxazol-4-yl)-1-methyl-6-oxo-2-(1-phenyl-1-(2-(trifluoromethyl)phenyl)propan-2-yl)-1,6-dihydropyrimidine-4-carboxamide], for which the IC50 against human TREX1 [1] is 1 to 10 nM.
`C[C@H](c1nc(C(=O)Nc2cnoc2)c(O)c(=O)n1C)C(c1ccccc1Cl)c1ccccc1Cl` (single isomer, unassigned) [Example 15 Isomer 1, 2-(1,1-bis(2-chlorophenyl)propan-2-yl)-5-hydroxy-N-(isooxazol-4-yl)-1-methyl-6-oxo-1,6-dihydropyrimidine-4-carboxamide] showed an IC50 against human TREX1 [1] of less than 1 nM. For the same compound, on human TREX1 [2], the koff was 4.77e-05 s⁻¹, the kon is 260000 M⁻¹ s⁻¹, the Kd turned out to be 0.183 nM and the residence time worked out at 350 min.
Turning to `CC(c1nc(C(=O)Nc2cnoc2)c(O)c(=O)n1C)C(c1ccccc1)c1cc(C(=O)N(C)C)ccc1C#N` (single isomer, unassigned) [Example 17 Isomer 3], at human TREX1 [1], the IC50 was less than 1 nM.
On the same count and under the same terms, under `Cn1c([C@H](C(c2ccccc2)c2ccccc2)C(F)(F)F)nc(C(=O)Nc2cnoc2)c(O)c1=O` (single isomer, unassigned) [Example 20 Isomer 1, 5-Hydroxy-N-(isoxazol-4-yl)-1-methyl-6-oxo-2-(1,1,1-trifluoro-3,3-diphenylpropan-2-yl)-1,6-dihydropyrimidine-4-carboxamide] stands 10 to 100 nM.
At human TREX1 [1], `Cn1c([C@@H](C(c2ccccc2C#N)c2ccccc2C#N)C(F)(F)F)nc(C(=O)Nc2cnoc2)c(O)c1=O` (single isomer, unassigned) [Example 21 Isomer 1, 2-(3,3-bis(2-cyanophenyl)-1,1,1-trifluoropropan-2-yl)-5-hydroxy-N-(isoxazol-4-yl)-1-methyl-6-oxo-1,6-dihydropyrimidine-4-carboxamide] registered an IC50 of less than 1 nM.
